Experimental data published in ChEMBL document CHEMBL4665886, “Assessing different thiazolidine and thiazole based compounds as antileishmanial scaffolds” (Bioorg Med Chem Lett, 2020).
Values belong to the compound of their own block, whether it stands above or below them.

Key:
BJ = test: Cytotoxicity against human BJ cells after 24 hrs by redox-sensitive dye based fluorescent assay; format: cell-based
[1] = system: Trypanosoma brucei gambiense; test: Antitrypanosomal activity against bloodstream form of Trypanosoma brucei gambiense Feo assessed as reduction in parasite growth; format: functional, organism-based
Leishmania major = test: Antileishmanial activity against Leishmania major FV1 assessed as reduction in parasite growth; format: functional, organism-based
[2] = system: Trypanosoma brucei brucei; test: Antitrypanosomal activity against bloodstream form of Trypanosoma brucei brucei 90-13 assessed as reduction in parasite growth; format: functional, organism-based
MRC5 = test: Cytotoxicity against human MRC5 cells after 24 hrs by redox-sensitive dye based fluorescent assay; format: cell-based; conditions: MRC5, 24 h
[3] = Therapeutic index, ratio of average IC50 for human MRC5 and BJ cells to IC50 for antileishmanial activity against Leishmania major; format: toxicity; conditions: MRC5 and BJ cells (average IC50) versus Leishmania major, read-out: TI

IC50 [1]: > 50 µM
IC50 [2]: > 50 µM
Compound: C=CCN1C(=O)C(CC(=O)c2ccc(F)cc2)S/C1=N\N=C\c1ccccc1 (stereo not given)
IC50 (BJ): 21.5 µM
IC50 (Leishmania major): 47.5 µM
IC50 (MRC5): 20.1 µM
selectivity ratio [3]: 0.45

Compound: CCC1S/C(=N\N=C\c2c(-c3ccc(Cl)cc3)[nH]c3ccccc23)NC1=O (stereo not given)
IC50 (BJ): 7.45 µM
IC50 (Leishmania major): 22.7 µM
IC50 (MRC5): 8.8 µM
selectivity ratio [3]: 0.36

Compound: O=C(CC1S/C(=N\N=C\c2c(-c3ccccc3)[nH]c3ccccc23)NC1=O)c1ccccc1 (stereo not given)
IC50 (BJ): > 50 µM
IC50 (Leishmania major): 9.14 µM
IC50 (MRC5): > 50 µM
selectivity ratio [3]: > 5.47

Compound: CCOC(=O)c1sc(N/N=C/c2c(-c3ccc([N+](=O)[O-])cc3)[nH]c3ccccc23)nc1C
IC50 (BJ): 50 µM
IC50 (Leishmania major): 7.22 µM
IC50 (MRC5): 23.5 µM
selectivity ratio [3]: 5.09

Compound: O=C1CS/C(=N\N=C\c2c(-c3ccc(Cl)cc3)[nH]c3ccccc23)N1
IC50 (BJ): > 50 µM
IC50 (Leishmania major): 7.01 µM
IC50 (MRC5): > 50 µM
selectivity ratio [3]: > 7.13

Compound: CCC1S/C(=N\N=C\c2c(-c3ccc(Br)cc3)[nH]c3ccccc23)NC1=O (stereo not given)
IC50 (BJ): 7.45 µM
IC50 (Leishmania major): 18.8 µM
IC50 (MRC5): 5.91 µM
selectivity ratio [3]: 0.36

Compound: O=C1N/C(=N/N=C/c2c(-c3ccc(Br)cc3)[nH]c3ccccc23)SC1CCO (stereo not given)
IC50 (BJ): 29.2 µM
IC50 (Leishmania major): 12.8 µM
IC50 (MRC5): 15.9 µM
selectivity ratio [3]: 1.75

Compound: C=CCSc1nn2c(/C=N/N=C3/NC(=O)C(CCOC(C)=O)S3)c(-c3ccccc3)nc2s1 (stereo not given)
IC50 (BJ): 34.9 µM
IC50 (Leishmania major): 9.81 µM
IC50 (MRC5): 23.2 µM
selectivity ratio [3]: 2.96

Compound: O=C(CC1S/C(=N\N=C\c2c(-c3ccccc3)[nH]c3ccccc23)NC1=O)c1ccc(F)cc1 (stereo not given)
IC50 (BJ): > 50 µM
IC50 (Leishmania major): 8.09 µM
IC50 (MRC5): 49.8 µM
selectivity ratio [3]: > 6.18

Compound: CC(=O)OCCC1S/C(=N\N=C\c2c(-c3ccccc3)[nH]c3ccccc23)NC1=O (stereo not given)
IC50 (BJ): 37.1 µM
IC50 (Leishmania major): 3.51 µM
IC50 (MRC5): 42.8 µM
selectivity ratio [3]: 11.3

Compound: CC1S/C(=N\N=C\c2c(-c3ccc(Br)cc3)[nH]c3ccccc23)NC1=O (stereo not given)
IC50 (BJ): > 50 µM
IC50 (Leishmania major): 18.6 µM
IC50 (MRC5): > 50 µM
selectivity ratio [3]: > 2.7

IC50 [1]: 2.34 µM
Compound: C=CCSc1nn2c(C=O)c(-c3ccccc3)nc2s1
IC50 (BJ): > 50 µM
IC50 (Leishmania major): 8.94 µM
IC50 (MRC5): 35.4 µM
selectivity ratio [3]: > 4.78

Compound: O=C1N/C(=N/N=C/c2c(-c3ccc(Cl)cc3)[nH]c3ccccc23)SC1CCO (stereo not given)
IC50 (BJ): 22.4 µM
IC50 (Leishmania major): 15.7 µM
IC50 (MRC5): 13.2 µM
selectivity ratio [3]: 1.13

Compound: CCC1S/C(=N\N=C\c2c(-c3ccc([N+](=O)[O-])cc3)[nH]c3ccccc23)NC1=O (stereo not given)
IC50 (BJ): 29.8 µM
IC50 (Leishmania major): 14.7 µM
IC50 (MRC5): 25.2 µM
selectivity ratio [3]: 1.87

Compound: CCC1S/C(=N\N=C\c2c(-c3ccccc3)[nH]c3ccccc23)NC1=O (stereo not given)
IC50 (BJ): > 50 µM
IC50 (Leishmania major): 1.12 µM
IC50 (MRC5): > 50 µM
selectivity ratio [3]: > 44.6

Compound: O=C1CS/C(=N\N=C\c2c(-c3ccccc3)[nH]c3ccccc23)N1
IC50 (BJ): > 50 µM
IC50 (Leishmania major): 1.73 µM
IC50 (MRC5): > 50 µM
selectivity ratio [3]: > 29.1

Compound: CC1S/C(=N\N=C\c2c(-c3ccccc3)[nH]c3ccccc23)NC1=O (stereo not given)
IC50 (BJ): > 50 µM
IC50 (Leishmania major): 1.01 µM
IC50 (MRC5): > 50 µM
selectivity ratio [3]: > 48.1

Compound: CCOC(=O)c1sc(N/N=C/c2c(-c3ccc(Cl)cc3)[nH]c3ccccc23)nc1C
IC50 (BJ): > 50 µM
IC50 (Leishmania major): 12 µM
IC50 (MRC5): 25.2 µM
selectivity ratio [3]: > 2.49

IC50 [1]: 1.85 µM
IC50 [2]: 2.36 µM
Compound: CCOC(=O)C(Cc1ccccc1)N1C(=O)/C(=C/Nc2ncc(Cc3ccc(Cl)cc3Cl)s2)SC1=S (stereo not given)
IC50 (BJ): > 50 µM
IC50 (Leishmania major): 15.2 µM
IC50 (MRC5): > 50 µM
selectivity ratio [3]: > 3.3

IC50 [2]: 10.2 µM
Compound: C[C@@H]1CC[C@@H]2[C@@H](C1)c1sc(=O)n(CC(=O)Nc3ccccc3)c1SC2(C)C
IC50 (BJ): > 50 µM
IC50 (Leishmania major): 8.68 µM
IC50 (MRC5): > 50 µM
selectivity ratio [3]: > 5.76

IC50 [1]: > 50 µM
IC50 [2]: > 50 µM
Compound: O=C(CC1S\C(=N/N=C\C=C\c2ccccc2)N(Cc2ccco2)C1=O)Nc1cccc(C(F)(F)F)c1 (stereo not given)
IC50 (BJ): 15.6 µM
IC50 (Leishmania major): 18.4 µM
IC50 (MRC5): 12 µM
selectivity ratio [3]: 0.75

IC50 [1]: 7.31 µM
Compound: O=C1CS/C(=N/N=C/c2c(-c3ccc(Cl)cc3)[nH]c3ccccc23)N1Cc1ccco1
IC50 (BJ): 8.07 µM
IC50 (Leishmania major): 12.6 µM
IC50 (MRC5): 10.8 µM
selectivity ratio [3]: 0.75

IC50 [2]: 14.2 µM
Compound: C[C@@H]1CC[C@@H]2[C@@H](C1)c1sc(=O)n(CC(=O)Nc3ccc(S(N)(=O)=O)cc3)c1SC2(C)C
IC50 (BJ): > 50 µM
IC50 (Leishmania major): 19.8 µM
IC50 (MRC5): > 50 µM
selectivity ratio [3]: > 2.53

IC50 [2]: 8.5 µM
Compound: C[C@@H]1CC[C@@H]2[C@@H](C1)c1sc(=O)n(CC(=O)Nc3ccccc3C(F)(F)F)c1SC2(C)C
IC50 (BJ): > 50 µM
IC50 (Leishmania major): 18 µM
IC50 (MRC5): > 50 µM
selectivity ratio [3]: > 2.78

IC50 [1]: > 50 µM
IC50 [2]: > 50 µM
Compound: C=CCN1C(=O)C(CC(=O)c2ccc(F)cc2)S/C1=N\N=C1\CC2CCC1(C)C2(C)C (stereo not given)
IC50 (BJ): > 50 µM
IC50 (Leishmania major): 15.3 µM
IC50 (MRC5): > 50 µM
selectivity ratio [3]: > 3.28

Compound: C[C@@H]1CC[C@@H]2[C@@H](C1)c1sc(=O)n(CCC#N)c1SC2(C)C
IC50 (BJ): > 50 µM
IC50 (Leishmania major): 14.8 µM
IC50 (MRC5): > 50 µM
selectivity ratio [3]: > 3.38

IC50 [1]: 13.4 µM
IC50 [2]: 9.65 µM
Compound: CCOC(=O)C(Cc1ccccc1)N1C(=O)/C(=C/Nc2nccs2)SC1=S (stereo not given)
IC50 (BJ): > 50 µM
IC50 (Leishmania major): 28.8 µM
IC50 (MRC5): > 50 µM
selectivity ratio [3]: > 1.73

Compound: CCc1nn2c(C=O)c(-c3ccc([N+](=O)[O-])cc3)nc2s1
IC50 (BJ): > 50 µM
IC50 (Leishmania major): 30.4 µM
IC50 (MRC5): > 50 µM
selectivity ratio [3]: > 1.65

IC50 [2]: 2.97 µM
Compound: C[C@@H]1CC[C@@H]2[C@@H](C1)c1sc(=O)n(CC(=O)Nc3cccc(C(F)(F)F)c3)c1SC2(C)C
IC50 (BJ): > 50 µM
IC50 (Leishmania major): 14.4 µM
IC50 (MRC5): > 50 µM
selectivity ratio [3]: > 3.47

Compound: C[C@@H]1[C@H](O)[C@@H](C)/C=C/C=C/C=C/C=C/C=C/C=C/C=C/[C@H](O[C@@H]2O[C@H](C)[C@@H](O)[C@H](N)[C@@H]2O)C[C@@H]2O[C@](O)(C[C@@H](O)C[C@@H](O)[C@H](O)CC[C@@H](O)C[C@@H](O)CC(=O)O[C@H]1C)C[C@H](O)[C@H]2C(=O)O [AMPHOTERICIN B]
IC50 (BJ): > 50 µM
IC50 (Leishmania major): 0.5 µM
IC50 (MRC5): > 50 µM
selectivity ratio [3]: > 100

Compound: CCCCCCCCCCCCCCCCOP(=O)([O-])OCC[N+](C)(C)C [MILTEFOSINE]
IC50 (BJ): > 50 µM
IC50 (Leishmania major): 8.18 µM
IC50 (MRC5): > 50 µM
selectivity ratio [3]: > 6.11
